Test results as given in ChEMBL document CHEMBL4325844, “Development of 2-amino-4-phenylthiazole analogues to disrupt myeloid differentiation factor 88 and prevent inflammatory responses in acute lung injury” (Eur J Med Chem, 2019).
Active and inactive are the calls of the source.

What was measured:
Peritoneal macrophage [1] = experiment: Antiinflammatory activity in ICR mouse primary peritoneal macrophages assessed as inhibition of LPS-induced IL-6 production at 20 uM preincubated for 60 mins followed by LPS stimulation and measured after 24 hrs by ELISA relative to control; assay type: functional
Peritoneal macrophage [2] = experiment: Antiinflammatory activity in ICR mouse primary peritoneal macrophages assessed as inhibition of LPS-induced TNFalpha production at 20 uM preincubated for 60 mins followed by LPS stimulation and measured after 24 hrs by ELISA relative to control; assay type: functional
[3] = Cytotoxicity against ICR mouse primary peritoneal macrophages assessed as cell viability at 20 uM after 24 hrs by MTT assay relative to control; assay type: cell-based, Peritoneal macrophage; conditions: read-out: Activity
[4] = Cytotoxicity against rat H9c2 cells assessed as cell viability at 20 uM after 24 hrs by MTT assay relative to control; assay type: cell-based; conditions: read-out: Activity
[5] = molecular target: Toll-like receptor 4/Ly96 (Mus musculus) (UniProt Q9QUK6+Q9JHF9); experiment: Inhibition of TLR4/MD2 interaction in LPS-induced mouse RAW264.7 at 20 uM measured after 30 mins by co-immunoprecipitation method; assay type: cell-based
[6] = molecular target: Toll-like receptor 4/MD-2 (Homo sapiens) (UniProt O00206+Q9Y6Y9); experiment: Inhibition of LPS-induced HA/FLAG-tagged TLR4 (unknown origin) interaction with MD2 (unknown origin) expressed in HEK293 cells at 20 uM after 48 hrs by co-immunoprecipitation method; assay type: cell-based
[7] = molecular target: T1, Myeloid differentiation primary response protein MyD88 (Homo sapiens, UniProt Q99836); experiment: Binding affinity to recombinant human MyD88 TIR domain (157 to 296 residues) expressed in Escherichia coli BL21(DE3) by surface plasmon resonance analysis
[8] = molecular target: T1, Myeloid differentiation primary response protein MyD88; experiment: Potency index, ratio of TJ-M2010-5 Kd to test compound Kd for recombinant human MyD88 TIR domain (157 to 296 residues) expressed in Escherichia coli BL21(DE3)
[9] = molecular target: Toll-like receptor 4 (Homo sapiens) (UniProt O00206); experiment: Binding affinity to recombinant human 10His-tagged TLR4 (24 to 631 residues) by SPR assay
[10] = molecular target: Myeloid differentiation primary response protein MyD88 (Mus musculus) (UniProt P22366); experiment: Inhibition of MyD88 in ICR mouse primary peritoneal macrophages assessed as reduction in LPS-induced JNK phosphorylation at 20 uM preincubated for 30 mins followed by LPS-stimulation and measured after 20 mins by Western blot analysis
[11] = molecular target: Myeloid differentiation primary response protein MyD88 (Mus musculus) (UniProt P22366); experiment: Inhibition of MyD88 in ICR mouse primary peritoneal macrophages assessed as reduction in LPS-induced ERK phosphorylation at 20 uM preincubated for 30 mins followed by LPS-stimulation and measured after 20 mins by Western blot analysis
[12] = molecular target: Myeloid differentiation primary response protein MyD88 (Mus musculus) (UniProt P22366); experiment: Inhibition of MyD88 in ICR mouse primary peritoneal macrophages assessed as reduction in LPS-induced IkappaB levels at 20 uM preincubated for 30 mins followed by LPS-stimulation and measured after 20 mins by Western blot analysis
[13] = molecular target: Myeloid differentiation primary response protein MyD88 (Mus musculus) (UniProt P22366); experiment: Inhibition of MyD88 in ICR mouse primary peritoneal macrophages assessed as reduction in LPS-induced NFkappaB translocation at 20 uM preincubated for 30 mins followed by LPS-stimulation and measured after 20 mins by immunofluorescence microscopic analysis
[14] = molecular target: Myeloid differentiation primary response protein MyD88 (Mus musculus) (UniProt P22366); experiment: Inhibition of MyD88 in mouse RAW264.7 cells expressing EGFP-fused NFkappaB at 10 uM preincubated for 30 mins followed by LPS-stimulation and measured after 1 hr by fluorescence assay; assay type: cell-based
Mus musculus [15] = experiment: Antiinflammatory activity in LPS-induced C57/BL6 mouse model of acute lung injury assessed as reduction in total protein levels in BALF at 10 mg/kg, ip pretreated for 30 mins followed by LPS challenge measured after 6 hrs; assay type: functional, organism-based
Mus musculus [16] = experiment: Antiinflammatory activity in LPS-induced C57/BL6 mouse model of acute lung injury assessed as reduction in IL6 level in BALF at 10 mg/kg, ip pretreated for 30 mins followed by LPS challenge measured after 6 hrs by ELISA; assay type: functional, organism-based
Mus musculus [17] = experiment: Antiinflammatory activity in LPS-induced C57/BL6 mouse model of acute lung injury assessed as reduction in TNFalpha level in BALF at 10 mg/kg, ip pretreated for 30 mins followed by LPS challenge measured after 6 hrs by ELISA; assay type: functional, organism-based
Mus musculus [18] = experiment: Antiinflammatory activity in LPS-induced C57/BL6 mouse model of acute lung injury assessed as reduction in TNFalpha level in serum at 10 mg/kg, ip pretreated for 30 mins followed by LPS challenge measured after 6 hrs by ELISA; assay type: functional, organism-based
Mus musculus [19] = experiment: Antiinflammatory activity in LPS-induced C57/BL6 mouse model of acute lung injury assessed as reduction in macrophage inflammatory infiltration at 10 mg/kg, ip pretreated for 30 mins followed by LPS challenge measured after 6 hrs by F4/80/hematoxylin staining based microscopic analysis; assay type: functional, organism-based
Mus musculus [20] = experiment: Antiinflammatory activity in LPS-induced C57/BL6 mouse model of acute lung injury assessed as reduction in interstitial edema at 10 mg/kg, ip pretreated for 30 mins followed by LPS challenge measured after 6 hrs by hematoxylin and eosin staining based microscopic analysis; assay type: functional, organism-based
Mus musculus [21] = experiment: Antiinflammatory activity in LPS-induced C57/BL6 mouse model of acute lung injury assessed as reduction in pulmonary congestion at 10 mg/kg, ip pretreated for 30 mins followed by LPS challenge measured after 6 hrs by hematoxylin and eosin staining based microscopic analysis; assay type: functional, organism-based
Mus musculus [22] = experiment: Antiinflammatory activity in LPS-induced C57/BL6 mouse model of acute lung injury assessed as reduction in inflammatory infiltration at 10 mg/kg, ip pretreated for 30 mins followed by LPS challenge measured after 6 hrs by hematoxylin and eosin staining based microscopic analysis; assay type: functional, organism-based
Mus musculus [23] = experiment: Antiinflammatory activity in LPS-induced C57/BL6 mouse model of acute lung injury assessed as reduction in lung tissue destruction at 10 mg/kg, ip pretreated for 30 mins followed by LPS challenge measured after 6 hrs by hematoxylin and eosin staining based microscopic analysis; assay type: functional, organism-based
Mus musculus [24] = experiment: Antiinflammatory activity in LPS-induced C57/BL6 mouse model of acute lung injury assessed as reduction in IL6 mRNA expression at 10 mg/kg, ip pretreated for 30 mins followed by LPS challenge measured after 6 hrs by SYBR green dye based RT-qPCR analysis; assay type: functional, organism-based
Mus musculus [25] = experiment: Antiinflammatory activity in LPS-induced C57/BL6 mouse model of acute lung injury assessed as reduction in TNFalpha mRNA expression at 10 mg/kg, ip pretreated for 30 mins followed by LPS challenge measured after 6 hrs by SYBR green dye based RT-qPCR analysis; assay type: functional, organism-based
Mus musculus [26] = experiment: Antiinflammatory activity in LPS-induced C57/BL6 mouse model of acute lung injury assessed as reduction in IL1beta mRNA expression at 10 mg/kg, ip pretreated for 30 mins followed by LPS challenge measured after 6 hrs by SYBR green dye based RT-qPCR analysis; assay type: functional, organism-based
Mus musculus [27] = experiment: Antiinflammatory activity in LPS-induced C57/BL6 mouse model of acute lung injury assessed as reduction in ICAM1 mRNA expression at 10 mg/kg, ip pretreated for 30 mins followed by LPS challenge measured after 6 hrs by SYBR green dye based RT-qPCR analysis; assay type: functional, organism-based

Sequence of Myeloid differentiation primary response protein MyD88 (Mus musculus) (P22366 whole entry, the tested form may be a part): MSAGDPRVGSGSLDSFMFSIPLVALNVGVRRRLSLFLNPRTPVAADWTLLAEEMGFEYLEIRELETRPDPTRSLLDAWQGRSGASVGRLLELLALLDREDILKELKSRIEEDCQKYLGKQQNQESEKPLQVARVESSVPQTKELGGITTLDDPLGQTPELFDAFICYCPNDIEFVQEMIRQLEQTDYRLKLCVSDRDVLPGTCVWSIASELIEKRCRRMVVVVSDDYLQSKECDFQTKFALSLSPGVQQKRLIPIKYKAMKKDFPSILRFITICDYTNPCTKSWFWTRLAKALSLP
T1 sequence (Q99836 whole entry, the tested form may be a part): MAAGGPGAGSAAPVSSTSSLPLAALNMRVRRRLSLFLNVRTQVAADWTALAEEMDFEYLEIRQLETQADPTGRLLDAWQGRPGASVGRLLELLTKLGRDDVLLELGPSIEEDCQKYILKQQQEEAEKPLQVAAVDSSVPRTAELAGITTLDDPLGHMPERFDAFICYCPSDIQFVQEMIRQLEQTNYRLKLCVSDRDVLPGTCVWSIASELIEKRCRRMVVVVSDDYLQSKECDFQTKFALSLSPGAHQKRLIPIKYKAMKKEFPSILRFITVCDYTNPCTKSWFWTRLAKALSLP
Sequence of Toll-like receptor 4 (Homo sapiens) (O00206 whole entry, the tested form may be a part): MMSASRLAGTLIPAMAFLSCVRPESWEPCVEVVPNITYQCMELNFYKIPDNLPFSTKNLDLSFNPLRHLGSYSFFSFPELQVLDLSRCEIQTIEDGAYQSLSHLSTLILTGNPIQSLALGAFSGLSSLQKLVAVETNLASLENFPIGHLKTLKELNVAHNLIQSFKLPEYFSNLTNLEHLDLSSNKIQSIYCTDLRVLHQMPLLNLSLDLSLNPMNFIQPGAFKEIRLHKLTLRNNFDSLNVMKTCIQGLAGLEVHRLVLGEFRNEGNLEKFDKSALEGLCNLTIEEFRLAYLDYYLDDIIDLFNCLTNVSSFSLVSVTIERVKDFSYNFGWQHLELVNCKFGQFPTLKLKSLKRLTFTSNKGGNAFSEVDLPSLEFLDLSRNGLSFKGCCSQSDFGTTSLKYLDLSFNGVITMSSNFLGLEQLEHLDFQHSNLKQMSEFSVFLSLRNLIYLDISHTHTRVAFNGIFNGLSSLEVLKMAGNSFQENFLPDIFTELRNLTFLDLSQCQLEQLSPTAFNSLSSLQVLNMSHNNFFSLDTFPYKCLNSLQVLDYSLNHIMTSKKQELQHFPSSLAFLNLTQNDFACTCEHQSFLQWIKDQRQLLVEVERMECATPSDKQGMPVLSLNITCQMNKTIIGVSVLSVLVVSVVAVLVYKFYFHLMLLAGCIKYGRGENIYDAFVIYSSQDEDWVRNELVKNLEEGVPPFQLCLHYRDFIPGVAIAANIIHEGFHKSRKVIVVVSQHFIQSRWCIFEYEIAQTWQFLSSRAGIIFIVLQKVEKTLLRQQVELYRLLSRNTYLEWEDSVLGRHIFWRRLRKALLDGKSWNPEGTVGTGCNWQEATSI

COc1cc(-c2csc(NC(=O)CCN3CCN(Cc4cccc([N+](=O)[O-])c4)CC3)n2)ccc1O
4830 M⁻¹ s⁻¹: Ka [7]
active: Activity [7] Dose-dependent effect | inhibition [10] | inhibition [11] | inhibition [12] | inhibition [13] | inhibition [14] | Activity (Mus musculus [15]) | Activity (Mus musculus [16]) | Activity (Mus musculus [17]) | Activity (Mus musculus [18]) | Activity (Mus musculus [19]) | Activity (Mus musculus [20]) | Activity (Mus musculus [21]) | Activity (Mus musculus [22]) | Activity (Mus musculus [23]) | Activity (Mus musculus [24]) | Activity (Mus musculus [25]) | Activity (Mus musculus [26]) | Activity (Mus musculus [27])
> 80%: viability at 24 h, 20 µM [3] | viability at 24 h, 20 µM [4]
95%: inhibition at 20 µM (Peritoneal macrophage [1])
0.167 s⁻¹: Kdiss [7]
34.5 µM: Kd [7]
inactive: inhibition [5] | inhibition [6] | Activity [9]
5: Ratio [8]
90.4%: inhibition at 20 µM (Peritoneal macrophage [2])
